Results as given in patent publication US10870638B2, “Pyridazinone compound or its salt, and herbicide containing it” (ISHIHARA SANGYO KAISHA, LTD., priority 2016, dated 2020).

Assays:
Format in all cases: in vivo
Settings in all cases: 14th day after application
[1] = tested on: redroot pigweed (Amaranthus retroflexus L.); test: Test Example 1: foliar treatment, growth inhibition rate on 14th day
Procedure, shortened: (§1)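 Visual 0–100% inhibition scoring (100 = complete kill) at 14 days after foliar treatment of soil-grown seedlings at species-specific leaf stages, with the compound sprayed as a wettable powder or emulsifiable concentrate dilution.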

[2] = tested on: soybean (Glycine max Merr.); test: as above
Procedure, shortened: as §1

[3] = tested on: green foxtail (Setaria viridis L.); test: as above
Procedure, shortened: as §1

[4] = tested on: crabgrass (Digitaria sanquinalis L.); test: as above
Procedure, shortened: as §1

[5] = tested on: wheat (Triticum aestivum L.); test: as above
Procedure, shortened: as §1

[6] = tested on: barnyardgrass (Echinochloa crus-qalli L.); test: as above
Procedure, shortened: as §1

[7] = tested on: wild oat (Avena fatua L.); test: as above
Procedure, shortened: as §1

corn (Zea mays L.) [8] = test: as above
Procedure, shortened: as §1

rice (Oryza sativa L.) [9] = test: as above
Procedure, shortened: as §1

[10] = tested on: italian ryegrass (Lolium multiflorum Lam.); test: as above
Procedure, shortened: as §1

[11] = tested on: velvetleaf (Abutilon theophrasti MEDIC.); test: Test Example 2: soil application on the day after sowing, growth inhibition rate on 14th day
Procedure, shortened: (§2)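 Upland soil pots; sowing, then next-day soil spraying of compound formulations (1,000 L/ha water) at defined a.i. doses. Day-14 visual rating of inhibition on a 0–100 scale, where 100 means complete kill.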

[12] = tested on: redroot pigweed (Amaranthus retroflexus L.); test: as above
Procedure, shortened: as §2

[13] = tested on: crabgrass (Digitaris sanquinalis L.); test: as above
Procedure, shortened: as §2

[14] = tested on: prickly sida (Sida spinosa L.); test: as above
Procedure, shortened: as §2

[15] = tested on: soybean (Glycine max Merr.); test: as above
Procedure, shortened: as §2

[16] = tested on: green foxtail (Setaria viridis L.); test: as above
Procedure, shortened: as §2

[17] = tested on: wheat (Triticum aestivum L.); test: as above
Procedure, shortened: as §2

[18] = tested on: barnyardgrass (Echinochloa crus-qalli L.); test: as above
Procedure, shortened: as §2

corn (Zea mays L.) [19] = test: as above
Procedure, shortened: as §2

rice (Oryza sativa L.) [20] = test: as above
Procedure, shortened: as §2

[21] = active ingredient amount 31 g/ha, visual, 0 = non-treated, 100 = complete kill
[22] = active ingredient amount 31 g/ha
[23] = active ingredient amount 500 g/ha

Row | Structure (SMILES) | Growth inhibition rate (%) Velvetleaf [11, 22] [%] | Growth inhibition rate (%) Redroot pigweed [12, 22] [%] | Growth inhibition rate (%) Crabgrass [13, 22] [%] | Growth inhibition rate (%) Prickly sida [14, 22] [%] | Growth inhibition rate (%) Soybean [15, 22] [%] | Growth inhibition rate (%) Green foxtail [16, 22] [%] | Growth inhibition rate (%) Wheat [17, 22] [%] | Growth inhibition rate (%) Barnyardgrass [18, 22] [%] | Growth inhibition rate (%) Corn (corn (Zea mays L.) [19]; [22]) [%] | Growth inhibition rate (%) Rice (rice (Oryza sativa L.) [20]; [22]) [%] | Growth inhibition rate (%) Redroot pigweed [1, 22] [%] | Growth inhibition rate (%) Soybean [2, 22] [%] | Growth inhibition rate (%) Green foxtail [3, 22] [%] | Growth inhibition rate (%) Crabgrass [4, 22] [%] | Growth inhibition rate (%) Wheat [5, 22] [%] | Growth inhibition rate (%) Barnyardgrass [6, 22] [%] | Growth inhibition rate (%) Wild oat [7, 22] [%] | Growth inhibition rate (%) Corn (corn (Zea mays L.) [8]; [22]) [%] | Growth inhibition rate (%) Rice (rice (Oryza sativa L.) [9]; [22]) [%] | Growth inhibition rate (%) Italian ryegrass [10, 22] [%] | also measured
1 | Cc1ccc(Oc2cnc3cc(Cl)ccc3n2)cc1-c1c(OC(=O)OCCCl)c(C)nn(C)c1=O [Compound 3-59] | 0 | 0 | 0 | 0 | 0 | 80 | 0 | 85 | 0 | 0 |  |  |  |  |  |  |  |  |  |  | Growth inhibition rate (%) Redroot pigweed [1, 21]: 0%; Growth inhibition rate (%) Soybean [2, 21]: 20%; Growth inhibition rate (%) Green foxtail [3, 21]: 100%; Growth inhibition rate (%) Crabgrass [4, 21]: 98%; Growth inhibition rate (%) Wheat [5, 21]: 65%; Growth inhibition rate (%) Barnyardgrass [6, 21]: 99%; Growth inhibition rate (%) Wild oat [7, 21]: 93%; Growth inhibition rate (%) Corn (corn (Zea mays L.) [8]; [21]): 0%; Growth inhibition rate (%) Rice (rice (Oryza sativa L.) [9]; [21]): 0%; Growth inhibition rate (%) Italian ryegrass [10, 21]: 93%
2 | CC(=O)Oc1c(C)nn(C)c(=O)c1-c1cc(Oc2cnc3cc(Cl)ccc3n2)ccc1C [Compound 3-33] | 0 | 0 | 99 | 0 | 0 | 100 | 40 | 100 | 20 | 60 | 0 | 30 | 100 | 99 | 100 | 100 | 100 | 10 | 93 | 98 | 
3 | COCC(=O)Oc1c(C)nn(C)c(=O)c1-c1cc(Oc2cnc3cc(Cl)ccc3n2)ccc1C [Compound 3-45] | 0 | 0 | 20 | 0 | 0 | 85 | 0 | 95 | 0 | 25 |  |  |  |  |  |  |  |  |  |  | Growth inhibition rate (%) Redroot pigweed [1, 21]: 0%; Growth inhibition rate (%) Soybean [2, 21]: 25%; Growth inhibition rate (%) Green foxtail [3, 21]: 99%; Growth inhibition rate (%) Crabgrass [4, 21]: 99%; Growth inhibition rate (%) Wheat [5, 21]: 98%; Growth inhibition rate (%) Barnyardgrass [6, 21]: 100%; Growth inhibition rate (%) Wild oat [7, 21]: 100%; Growth inhibition rate (%) Corn (corn (Zea mays L.) [8]; [21]): 45%; Growth inhibition rate (%) Rice (rice (Oryza sativa L.) [9]; [21]): 98%; Growth inhibition rate (%) Italian ryegrass [10, 21]: 100%
4 | CC(=O)Oc1c(C)nn(C)c(=O)c1-c1cc(Oc2ncc(C(F)(F)F)cc2F)ccc1C [Compound 2-63] | 0 | 0 | 100 | 0 | 0 | 98 | 0 | 100 | 0 | 15 | 0 | 0 | 100 | 98 | 95 | 100 | 100 | 100 | 90 | 100 | 
5 | CC(=O)Oc1cnn(CC2CC2)c(=O)c1-c1cccc(Oc2ncc(C(F)(F)F)cc2Cl)c1C [1-170] | 0 | 0 | 93 | 0 | 0 | 98 | 0 | 75 | 0 | 0 | 10 | 0 | 98 | 99 | 0 | 95 | 40 | 99 | 40 | 30 | 
6 | CC(=O)Oc1c(C)nn(C)c(=O)c1-c1cc(Oc2ncc(C(F)(F)F)cc2Cl)ccc1C [1-40] | 0 | 0 | 100 | 0 | 0 | 100 | 0 | 100 | 30 | 60 | 40 | 10 | 100 | 99 | 93 | 100 | 98 | 100 | 80 | 100 | 
7 | Cc1ccc(Oc2nc3ccc(Cl)cc3o2)cc1-c1c(O)cnn(C(C)C)c1=O [Compound 2-171] | 0 | 0 | 30 | 0 | 0 | 75 | 0 | 65 | 0 | 0 | 0 | 30 | 93 | 90 | 0 | 99 | 0 | 80 | 25 | 30 | 
8 | CCn1nc(C)c(OC(C)=O)c(-c2cc(Oc3ncc(C(F)(F)F)cc3Cl)ccc2C)c1=O [1-165] | 0 | 0 | 100 | 0 | 0 | 95 | 0 | 99 | 0 | 0 | 0 | 0 | 100 | 100 | 95 | 100 | 100 | 100 | 83 | 100 | 
9 | CC(=O)Oc1c(C)nn(C)c(=O)c1-c1cc(Oc2cnc3ccccc3c2)ccc1C [Compound 2-146] |  |  |  |  |  |  |  |  |  |  |  |  |  |  |  |  |  |  |  |  | Growth inhibition rate (%) Redroot pigweed [1, 23]: 0%; Growth inhibition rate (%) Soybean [2, 23]: 10%; Growth inhibition rate (%) Green foxtail [3, 23]: 95%; Growth inhibition rate (%) Crabgrass [4, 23]: 95%; Growth inhibition rate (%) Wheat [5, 23]: 50%; Growth inhibition rate (%) Barnyardgrass [6, 23]: 99%; Growth inhibition rate (%) Wild oat [7, 23]: 80%; Growth inhibition rate (%) Corn (corn (Zea mays L.) [8]; [23]): 85%; Growth inhibition rate (%) Rice (rice (Oryza sativa L.) [9]; [23]): 75%; Growth inhibition rate (%) Italian ryegrass [10, 23]: 20%; Growth inhibition rate (%) Velvetleaf [11, 23]: 50%; Growth inhibition rate (%) Redroot pigweed [12, 23]: 0%; Growth inhibition rate (%) Crabgrass [13, 23]: 100%; Growth inhibition rate (%) Prickly sida [14, 23]: 0%; Growth inhibition rate (%) Soybean [15, 23]: 0%; Growth inhibition rate (%) Green foxtail [16, 23]: 100%; Growth inhibition rate (%) Wheat [17, 23]: 0%; Growth inhibition rate (%) Barnyardgrass [18, 23]: 100%; Growth inhibition rate (%) Corn (corn (Zea mays L.) [19]; [23]): 20%; Growth inhibition rate (%) Rice (rice (Oryza sativa L.) [20]; [23]): 85%
